Experimental data: patent US10688193B2, “PH-sensitive linkers for delivering a therapeutic agent” (GNT BIOTECH & MEDICALS CORPORATION, priority 2015, dated 2020)

Assays:
in vitro [1] = settings: human, MCF7 breast adenocarcinoma cells
Description: (§2) After took photos, cells were counted by using hemocytometer.

in vitro [2] = settings: human, MDA-MB-231 breast adenocarcinoma cells
Description: as §2

in vitro [3] = settings: human, H184B5F5/M10 mammary epithelial cells
Description: as §2

in vitro [4] = settings: human, MDA-MB-453 breast adenocarcinoma cells
Description: as §2

MDA-MB-453 = assay: Cytotoxicity assay of Au/LKs/Dox complexes (MTS, 72 hours); format: cell-based; settings: Homo sapiens; MDA-MB-453, 72 hrs; read-out: IC50 value for complex cytotoxicity
Protocol: (§1) We examined the cytotoxicity of Au/LKs/Dox complexes and the IC50 value was calculated. […] The CellTiter 96® AQueous One Solution Cell Proliferation Assay (MTS) reagent was purchased from Promega (Madison, Wis., USA) and the assay was performed according to the manufacturer's instructions. Absorbance was measured at 490 nm using a microplate reader (Bio-tek, Powerwave X340, Winooski, Vt., USA).

[5] = as above; format: cell-based; settings: human, H184B5F5/M10 mammary epithelial cells; M10, 72 hrs; read-out: IC50 value for complex cytotoxicity
Protocol: as §1

MDA-MB-231 breast tumors = assay: MDA-MB-231 breast tumor xenograft efficacy study; format: in vivo, BALB/c-nu/nu mice
Description: FIG. 6 (A) to (D) show the treatment of MDA-MB-231 breast tumors. (A) Net animal weight change (g) during the treatment. From the data, doxorubicin and Au/LKI-1/Dox was cause the weight loss over 20% and 3% in nude mice (N=3), respectively. […] (B) The inhibition of MDA-MD-231 breast tumor growth (N=3): Dox>Au/LKI-1/Dox>Au/PEG=PBS. (C) TEM images of MDA-MB-231 breast tumor cells treated with Au/LKI-1/Dox complex was easy determined the Au/LKI-1/Dox complex in the tumor in xenograft model. (D) Immunohistochemistry of tumor specimens. Breast tumor specimens were taken from the mice, embedded in paraffin and stained with hematoxylineosin.
BALB/c-nu/nu mice were purchased from BioLASCO Taiwan. Eight week old male mice were injected unilaterally with 1.0×10^7 MDA-MB-231 breast tumor cells in 200 μL of 50:50 Matrigel/Leibovitz's (L-15) into the dorsum by subcutaneous injection. (1) Vehicle-PBS (negative control), (2) Doxorubicin (positive control), 5 mg/kg, (3) Au/PEG, (4) Au/LKI-1/Dox complex, 5 mg/kg of Dox. Treatment was ongoing until clinical symptoms necessitated sacrifice. Mice were weighed a minimum of two times/weekly and were monitored tumor size until clinical symptoms necessitated sacrifice (see FIG. 6A, 6B). TEM images of MDA-MB-231 breast tumor cells treated with Au/LKI-1/Dox complex in xenograft model. […] (see FIG. 6C) H&E stain of MDA-MB-231 tumor cells treated with Au/LKI-1/Dox complex in xenograft model. (see FIG. 6D)

TNFα = TNFα (Homo sapiens, UniProt P01375); assay: Blocking of TNFα-induced MCF-7 cell apoptosis (MTS); format: cell-based; settings: for Relative cell survival %: TNFα 12.5 ng/mL, MCF-7, 72 hours
Protocol: We further examined Au/LKI-1/ETA complex by binding with secondary antibody conjugated with 1-5 nm AuNPs. In TEM images of Au/LKI-1/ETA complex, binding of 1-5 nm gold-labeled secondary anti-human IgG antibodies to ETA located on the AuNP surface was observed (FIG. 4C). We further investigated the TNFα blocking ability of ETA and Au/LKI-1/ETA. MCF-7 cells (5×10^5) were treated with the mixtures of 12.5 ng/mL TNFα and 62.5, 125, 250, 500 ng/mL ETA or Au/LKI-1/ETA complex for 2 hours, respectively. The treated cells were incubated at 37° C. for 72 hours and then the cell numbers were counted by MTS [(3-(4,5-dimethylthiazol-2-yl)-5-(3-carboxymethoxyphenyl)-2-(4-sulfophenyl)-2H-tetrazolium)] assay. […] ETA and Au/LKI-1/ETA complex were used to test their abilities in blocking TNFα induced MCF-7 cell apoptosis, Table 4.

TNFα, sequence (P01375 77-233 limits assumed, species assumed): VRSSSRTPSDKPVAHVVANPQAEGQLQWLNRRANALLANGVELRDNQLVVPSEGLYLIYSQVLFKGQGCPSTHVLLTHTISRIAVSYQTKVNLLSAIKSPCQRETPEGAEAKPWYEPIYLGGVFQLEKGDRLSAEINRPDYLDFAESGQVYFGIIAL

## NNC(=O)OCCOCCNC(=O)CCCCCS [Linker SHI-1]
In vitro [1]
  IC50 at 72 h: > 800 µM
In vitro [2]
  IC50 at 72 h: 559 ± 23.3 µM
In vitro [3]
  IC50 at 72 h: > 800 µM
In vitro [4]
  IC50 at 72 h: 128 ± 15.1 µM

## NNC(=O)OCCNC(=O)CNC(=O)CNC(=O)CNC(=O)CCCCC1CCSS1 (centres unmarked) [Linker II-3]
In vitro [1]
  IC50 at 72 h: > 800 µM
In vitro [2]
  IC50 at 72 h: 428 ± 116 µM
In vitro [3]
  IC50 at 72 h: 585 ± 132 µM
In vitro [4]
  IC50 at 72 h: > 800 µM

## NNC(=O)OCCOCCOCCOCCOCCOCCNC(=O)CCCCC1CCSS1 (centres unmarked) [Linker I-5]
In vitro [1]
  IC50 at 72 h: 419 ± 23.8 µM
In vitro [2]
  IC50 at 72 h: 484 ± 64.6 µM
In vitro [3]
  IC50 at 72 h: 569 ± 54.7 µM
In vitro [4]
  IC50 at 72 h: 460 ± 87.9 µM

## NNC(=O)OCCNC(=O)CNC(=O)CNC(=O)CCCCC1CCSS1 (centres unmarked) [Linker II-2]
In vitro [1]
  IC50 at 72 h: > 800 µM
In vitro [2]
  IC50 at 72 h: > 800 µM
In vitro [3]
  IC50 at 72 h: > 800 µM
In vitro [4]
  IC50 at 72 h: > 800 µM

## NNC(=O)OCCOCCOCCOCCNC(=O)CCCCCS [Linker SHI-4]
In vitro [1]
  IC50 at 72 h: > 800 µM
In vitro [2]
  IC50 at 72 h: 533 ± 63.9 µM
In vitro [3]
  IC50 at 72 h: > 800 µM
In vitro [4]
  IC50 at 72 h: 130 ± 13.4 µM

## NNC(=O)OCCNC(=O)CNC(=O)CCCCC1CCSS1 (centres unmarked) [Linker II-1]
In vitro [1]
  IC50 at 72 h: 501 µM
In vitro [2]
  IC50 at 72 h: 474 µM
In vitro [3]
  IC50 at 72 h: 500 µM
In vitro [4]
  IC50 at 72 h: > 800 µM

## NNC(=O)OCCOCCOCCOCCNC(=O)CCCCC1CCSS1 (centres unmarked) [Linker I-4]
In vitro [1]
  IC50 at 72 h: 569 ± 14.1 µM
In vitro [2]
  IC50 at 72 h: 576 ± 81.9 µM
In vitro [3]
  IC50 at 72 h: 560 ± 45.1 µM
In vitro [4]
  IC50 at 72 h: 342 ± 11 µM

## COc1cccc2c1C(=O)c1c(O)c3c(c(O)c1C2=O)C[C@@](O)(C(=O)CO)C[C@@H]3O[C@H]1C[C@H](N)[C@H](O)[C@H](C)O1 [Dox, doxorubicin]
MDA-MB-453
  IC50: 0.65 ± 0.072 µM
[5]
  IC50 at 72 h: 0.14 ± 0.034 µM
MDA-MB-231 breast tumors; N=3, 5 mg/kg of Dox
  inhibition of MDA-MB-231 breast tumor growth (rank order): Dox>Au/LKI-1/Dox>Au/PEG=PBS
MDA-MB-231 breast tumors; nude mice (N=3), 5 mg/kg of Dox
  weight loss during the treatment: over 20%
MDA-MB-231 breast tumors; xenograft tumors
  necrosis in tumor specimens (hematoxylin-eosin): more necrosis

## Etanercept
TNFα; MCF-7 cells
  TNFα blocking ability: TNFα blocking ability was observed
TNFα; dose 62.5 ng/mL
  Relative cell survival %: 36.7 ± 1.4%
TNFα; dose 125 ng/mL
  Relative cell survival %: 68.5 ± 2.3%
TNFα; dose 250 ng/mL
  Relative cell survival %: 82.1 ± 6.5%
TNFα; dose 500 ng/mL
  Relative cell survival %: 103.3 ± 0.9%

## NNC(=O)OCCNC(=O)CCCCC1CCSS1 (centres unmarked) [Linker I-2]
In vitro [1]
  IC50 at 72 h: 730 ± 36.7 µM
In vitro [2]
  IC50 at 72 h: 536 ± 21.6 µM
In vitro [3]
  IC50 at 72 h: 686 ± 105 µM
In vitro [4]
  IC50 at 72 h: 432 ± 96.6 µM

## NNC(=O)OCCOCCNC(=O)CCCCC1CCSS1 (centres unmarked) [Linker I-1]
In vitro [1]
  IC50 at 72 h: 692 ± 51.9 µM
In vitro [2]
  IC50 at 72 h: 529 ± 52.1 µM
In vitro [3]
  IC50 at 72 h: 584 ± 62.7 µM
In vitro [4]
  IC50 at 72 h: 299 ± 23 µM

## NNC(=O)OCCOCCOCCNC(=O)CCCCC1CCSS1 (centres unmarked) [Linker I-3]
In vitro [1]
  IC50 at 72 h: 538 ± 39.6 µM
In vitro [2]
  IC50 at 72 h: 454 ± 142 µM
In vitro [3]
  IC50 at 72 h: 555 ± 33.5 µM
In vitro [4]
  IC50 at 72 h: 333 ± 9.8 µM
